Test [1] addresses Insulin receptor (Homo sapiens, UniProt P06213). Nature of the test: Selectivity interaction (ProQinase) EUB0000171b INSR.
Test [2] has as its target T1, Tyrosine-protein kinase ITK/TSK (Homo sapiens) (UniProt Q08881).
T1 sequence (whole entry): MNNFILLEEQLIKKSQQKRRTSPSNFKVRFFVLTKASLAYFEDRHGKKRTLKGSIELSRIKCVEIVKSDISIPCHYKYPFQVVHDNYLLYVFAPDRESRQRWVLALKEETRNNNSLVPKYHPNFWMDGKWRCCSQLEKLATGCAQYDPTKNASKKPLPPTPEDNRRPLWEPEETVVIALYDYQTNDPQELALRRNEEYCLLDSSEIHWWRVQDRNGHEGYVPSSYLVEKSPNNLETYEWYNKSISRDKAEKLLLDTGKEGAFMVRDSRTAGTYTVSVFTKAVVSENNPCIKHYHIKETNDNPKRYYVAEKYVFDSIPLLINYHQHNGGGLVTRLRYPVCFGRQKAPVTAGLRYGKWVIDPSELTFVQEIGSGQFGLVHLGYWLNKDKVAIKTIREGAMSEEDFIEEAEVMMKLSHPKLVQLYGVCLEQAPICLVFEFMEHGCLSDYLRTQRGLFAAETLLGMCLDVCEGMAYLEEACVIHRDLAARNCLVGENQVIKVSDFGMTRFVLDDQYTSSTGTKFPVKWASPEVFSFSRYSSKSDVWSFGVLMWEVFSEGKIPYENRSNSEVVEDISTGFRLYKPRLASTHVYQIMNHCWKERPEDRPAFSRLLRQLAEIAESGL
Nature of the test: Selectivity interaction (ProQinase) EUB0000171b ITK.

Test [3] concerns the target Phosphatidylinositol 4,5-bisphosphate 3-kinase catalytic subunit gamma isoform (Homo sapiens) (UniProt P48736). In words: Selectivity interaction (ProQinase) EUB0000171b PIK3CG.
Test [4] concerns the target Activin receptor type-2A (Homo sapiens) (UniProt P27037). The conditions noted are these: at 10 µM.
For test [5], the target named is Phosphatidylinositol 3-kinase catalytic subunit type 3 (Homo sapiens, UniProt Q8NEB9). In words: Selectivity interaction (KinomeScan (DiscoverX)) EUB0000695a PIK3C3. Conditions: at 100 nM.
The test system of test [6] is Epidermal growth factor receptor (Homo sapiens), P00533 [UNDEFINED MUTATION]. Nature of the test: Selectivity interaction (KinomeScan (DiscoverX)) EUB0000666a EGFR. The conditions noted are these: at 10 µM.
Sequence of Epidermal growth factor receptor (Homo sapiens), P00533 [UNDEFINED MUTATION] (P00533 whole entry, looked up, change not shown): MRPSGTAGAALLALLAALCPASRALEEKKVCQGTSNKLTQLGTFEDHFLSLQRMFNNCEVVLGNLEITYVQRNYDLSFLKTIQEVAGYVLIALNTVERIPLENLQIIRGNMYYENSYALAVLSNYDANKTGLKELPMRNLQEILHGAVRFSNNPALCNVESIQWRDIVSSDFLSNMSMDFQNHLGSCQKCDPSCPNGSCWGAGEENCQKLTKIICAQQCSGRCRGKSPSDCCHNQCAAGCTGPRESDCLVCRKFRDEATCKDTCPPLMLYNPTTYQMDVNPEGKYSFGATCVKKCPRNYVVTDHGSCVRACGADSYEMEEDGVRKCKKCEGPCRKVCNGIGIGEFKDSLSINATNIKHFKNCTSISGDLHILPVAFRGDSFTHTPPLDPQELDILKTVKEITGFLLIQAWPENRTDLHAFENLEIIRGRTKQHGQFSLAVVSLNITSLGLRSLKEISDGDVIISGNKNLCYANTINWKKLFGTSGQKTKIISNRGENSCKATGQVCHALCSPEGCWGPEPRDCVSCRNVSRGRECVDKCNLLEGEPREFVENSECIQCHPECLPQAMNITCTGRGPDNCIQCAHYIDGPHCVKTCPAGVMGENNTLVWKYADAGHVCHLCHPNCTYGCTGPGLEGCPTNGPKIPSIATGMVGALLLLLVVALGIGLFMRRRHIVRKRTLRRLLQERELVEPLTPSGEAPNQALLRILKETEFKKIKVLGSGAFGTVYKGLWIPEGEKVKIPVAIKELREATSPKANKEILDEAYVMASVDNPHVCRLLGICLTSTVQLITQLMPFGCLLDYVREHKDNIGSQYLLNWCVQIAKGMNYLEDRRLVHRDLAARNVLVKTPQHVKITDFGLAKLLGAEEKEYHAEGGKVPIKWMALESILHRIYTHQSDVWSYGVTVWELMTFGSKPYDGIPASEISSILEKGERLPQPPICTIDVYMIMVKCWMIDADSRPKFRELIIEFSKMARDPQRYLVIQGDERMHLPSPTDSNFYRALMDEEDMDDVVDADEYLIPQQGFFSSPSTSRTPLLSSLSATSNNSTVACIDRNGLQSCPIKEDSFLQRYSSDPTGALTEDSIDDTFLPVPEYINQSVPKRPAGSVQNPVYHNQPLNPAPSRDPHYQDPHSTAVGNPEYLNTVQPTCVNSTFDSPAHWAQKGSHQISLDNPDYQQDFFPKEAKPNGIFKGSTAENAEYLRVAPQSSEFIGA
The target of test [7] is Ephrin type-A receptor 4 (Homo sapiens, UniProt P54764). In words: Selectivity interaction (SelectScreen profiling (Invitrogen)) EUB0000607a EPHA4. Conditions: at 2 µM.
In test [8] the target is T2, Serine/threonine-protein kinase NLK (Homo sapiens) (UniProt Q9UBE8).
T2 sequence (whole entry): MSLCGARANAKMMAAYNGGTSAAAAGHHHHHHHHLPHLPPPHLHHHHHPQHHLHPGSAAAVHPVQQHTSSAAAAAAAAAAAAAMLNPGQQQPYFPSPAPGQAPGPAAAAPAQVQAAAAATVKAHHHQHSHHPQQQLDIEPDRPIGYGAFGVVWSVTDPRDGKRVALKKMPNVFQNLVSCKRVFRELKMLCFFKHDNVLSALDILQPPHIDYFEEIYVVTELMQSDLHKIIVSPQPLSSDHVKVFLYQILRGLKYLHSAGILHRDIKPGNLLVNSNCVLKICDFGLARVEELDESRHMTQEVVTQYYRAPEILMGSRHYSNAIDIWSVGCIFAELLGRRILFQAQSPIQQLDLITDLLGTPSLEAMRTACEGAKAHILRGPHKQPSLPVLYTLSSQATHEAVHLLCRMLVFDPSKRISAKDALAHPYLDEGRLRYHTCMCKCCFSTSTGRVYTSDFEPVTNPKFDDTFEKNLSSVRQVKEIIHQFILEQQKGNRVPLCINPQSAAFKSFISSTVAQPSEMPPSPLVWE
Nature of the test: Selectivity interaction (KinomeScan (DiscoverX)) EUB0000229b NLK. The conditions noted are these: at 10 µM.

Test [9] has as its target T3, NUAK family SNF1-like kinase 2 (Homo sapiens) (UniProt Q9H093).
T3 sequence (whole entry): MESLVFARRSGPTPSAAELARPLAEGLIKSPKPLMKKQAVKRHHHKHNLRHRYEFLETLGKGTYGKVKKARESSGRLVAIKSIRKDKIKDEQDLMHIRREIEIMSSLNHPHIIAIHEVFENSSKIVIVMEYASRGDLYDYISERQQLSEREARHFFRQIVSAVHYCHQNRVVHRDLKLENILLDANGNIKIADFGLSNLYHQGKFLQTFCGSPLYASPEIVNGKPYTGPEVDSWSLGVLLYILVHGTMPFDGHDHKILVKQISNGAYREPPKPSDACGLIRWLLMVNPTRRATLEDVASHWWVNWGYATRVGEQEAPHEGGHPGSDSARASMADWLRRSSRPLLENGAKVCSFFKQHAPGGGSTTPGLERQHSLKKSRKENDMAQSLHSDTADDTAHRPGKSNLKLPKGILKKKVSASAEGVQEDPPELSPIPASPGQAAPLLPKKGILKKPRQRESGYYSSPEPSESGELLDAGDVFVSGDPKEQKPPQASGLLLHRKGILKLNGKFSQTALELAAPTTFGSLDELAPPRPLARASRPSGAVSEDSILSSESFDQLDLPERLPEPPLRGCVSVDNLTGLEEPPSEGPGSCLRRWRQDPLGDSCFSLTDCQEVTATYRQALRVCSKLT
Nature of the test: Selectivity interaction (KinomeScan (DiscoverX)) EUB0001619a NUAK2. Conditions: at 1 µM.

Test [10] addresses Mitogen-activated protein kinase 14 (Homo sapiens, UniProt Q16539). Nature of the test: Selectivity interaction (Kinase panel (KiNativ target engagement assay in Jurkat cells)) EUB0001635a MAPK14. In kind it is cell-based. The conditions noted are these: Selectivity number of off-targets 0.0, Selectivity number of targets 233.0, Source Knowledge https://www.sciencedirect.com/science/article/pii/S2451945619300674?via%3Dihub, at 1 µM.

The source of these data is ChEMBL document CHEMBL5465560, “Selectivity Literature for EUbOPEN Chemogenomic Library” (2024).

Structures are written as SMILES.

Sequence of Phosphatidylinositol 4,5-bisphosphate 3-kinase catalytic subunit gamma isoform (Homo sapiens) (P48736 whole entry, looked up, canonical isoform): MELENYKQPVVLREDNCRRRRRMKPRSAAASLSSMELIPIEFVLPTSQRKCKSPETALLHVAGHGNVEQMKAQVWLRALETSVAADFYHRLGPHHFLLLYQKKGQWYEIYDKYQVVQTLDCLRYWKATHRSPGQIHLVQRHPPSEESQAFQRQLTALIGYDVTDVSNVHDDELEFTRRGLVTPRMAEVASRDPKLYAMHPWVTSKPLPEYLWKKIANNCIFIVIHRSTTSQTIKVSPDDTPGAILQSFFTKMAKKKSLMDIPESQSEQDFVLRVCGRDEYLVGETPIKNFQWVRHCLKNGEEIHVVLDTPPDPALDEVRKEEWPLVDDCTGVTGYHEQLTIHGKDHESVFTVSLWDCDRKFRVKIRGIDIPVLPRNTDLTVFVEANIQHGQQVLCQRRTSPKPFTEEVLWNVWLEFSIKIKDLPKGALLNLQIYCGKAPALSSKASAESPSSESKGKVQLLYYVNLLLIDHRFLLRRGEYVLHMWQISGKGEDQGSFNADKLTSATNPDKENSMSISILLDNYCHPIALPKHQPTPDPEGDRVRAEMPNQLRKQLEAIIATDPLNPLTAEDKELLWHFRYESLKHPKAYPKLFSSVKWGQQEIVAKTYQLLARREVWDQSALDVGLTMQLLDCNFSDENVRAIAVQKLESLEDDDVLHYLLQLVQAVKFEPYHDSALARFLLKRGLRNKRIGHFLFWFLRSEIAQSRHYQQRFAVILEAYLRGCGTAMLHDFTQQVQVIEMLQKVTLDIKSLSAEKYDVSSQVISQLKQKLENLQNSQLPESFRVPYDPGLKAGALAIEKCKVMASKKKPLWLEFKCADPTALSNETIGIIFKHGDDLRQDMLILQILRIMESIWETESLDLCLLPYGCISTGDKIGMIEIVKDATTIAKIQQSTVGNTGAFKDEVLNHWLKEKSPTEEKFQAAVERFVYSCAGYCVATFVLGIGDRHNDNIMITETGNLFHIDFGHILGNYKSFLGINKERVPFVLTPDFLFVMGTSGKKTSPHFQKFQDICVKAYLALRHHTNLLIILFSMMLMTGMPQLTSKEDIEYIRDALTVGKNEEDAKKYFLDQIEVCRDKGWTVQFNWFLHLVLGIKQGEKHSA
Sequence of Insulin receptor (P06213 28-758 limits assumed): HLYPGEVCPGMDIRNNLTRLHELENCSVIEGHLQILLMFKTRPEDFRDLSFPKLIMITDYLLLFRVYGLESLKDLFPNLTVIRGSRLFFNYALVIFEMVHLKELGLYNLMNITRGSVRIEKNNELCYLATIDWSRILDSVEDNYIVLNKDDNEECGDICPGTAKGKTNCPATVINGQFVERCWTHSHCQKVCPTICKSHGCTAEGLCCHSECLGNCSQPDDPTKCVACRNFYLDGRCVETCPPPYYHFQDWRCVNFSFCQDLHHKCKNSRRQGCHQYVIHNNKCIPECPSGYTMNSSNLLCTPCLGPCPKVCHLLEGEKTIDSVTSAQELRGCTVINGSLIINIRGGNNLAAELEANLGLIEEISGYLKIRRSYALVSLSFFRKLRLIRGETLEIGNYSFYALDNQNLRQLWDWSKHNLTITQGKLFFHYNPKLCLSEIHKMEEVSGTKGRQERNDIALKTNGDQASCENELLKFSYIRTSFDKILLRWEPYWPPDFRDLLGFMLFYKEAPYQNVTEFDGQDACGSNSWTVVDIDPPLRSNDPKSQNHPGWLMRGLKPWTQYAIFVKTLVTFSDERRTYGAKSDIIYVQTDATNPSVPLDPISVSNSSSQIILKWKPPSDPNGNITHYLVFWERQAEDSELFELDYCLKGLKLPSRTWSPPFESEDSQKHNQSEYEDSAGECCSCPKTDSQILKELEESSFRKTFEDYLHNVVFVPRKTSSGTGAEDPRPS
Sequence of Insulin receptor (P06213 763-1382 limits assumed): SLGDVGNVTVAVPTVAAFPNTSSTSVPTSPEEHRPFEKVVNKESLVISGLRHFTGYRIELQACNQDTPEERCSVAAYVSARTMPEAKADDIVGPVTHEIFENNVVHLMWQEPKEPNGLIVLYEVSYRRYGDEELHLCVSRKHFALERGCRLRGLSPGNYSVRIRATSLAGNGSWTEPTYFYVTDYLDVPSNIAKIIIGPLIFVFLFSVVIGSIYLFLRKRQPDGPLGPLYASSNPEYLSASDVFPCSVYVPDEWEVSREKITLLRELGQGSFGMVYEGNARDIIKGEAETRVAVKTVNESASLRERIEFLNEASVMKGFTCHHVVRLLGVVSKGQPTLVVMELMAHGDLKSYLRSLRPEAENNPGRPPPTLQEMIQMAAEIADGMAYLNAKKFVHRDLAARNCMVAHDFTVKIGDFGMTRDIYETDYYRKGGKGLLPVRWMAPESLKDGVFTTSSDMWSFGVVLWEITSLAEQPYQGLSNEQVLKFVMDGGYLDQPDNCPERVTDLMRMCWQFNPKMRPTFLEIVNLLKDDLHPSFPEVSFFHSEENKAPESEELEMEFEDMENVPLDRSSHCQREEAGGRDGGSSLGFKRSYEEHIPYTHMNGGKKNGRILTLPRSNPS
Sequence of Mitogen-activated protein kinase 14 (Q16539 whole entry): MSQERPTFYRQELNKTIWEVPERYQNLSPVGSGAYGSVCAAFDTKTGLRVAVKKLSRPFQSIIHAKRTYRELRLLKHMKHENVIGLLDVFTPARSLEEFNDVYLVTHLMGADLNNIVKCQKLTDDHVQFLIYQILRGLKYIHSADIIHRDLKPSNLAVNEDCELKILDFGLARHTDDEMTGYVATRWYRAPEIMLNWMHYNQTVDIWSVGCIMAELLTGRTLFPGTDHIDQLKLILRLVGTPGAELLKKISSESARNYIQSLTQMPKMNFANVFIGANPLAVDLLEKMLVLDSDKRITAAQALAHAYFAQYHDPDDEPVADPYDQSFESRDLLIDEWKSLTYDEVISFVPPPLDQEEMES
Sequence of Activin receptor type-2A (Homo sapiens) (P27037 whole entry): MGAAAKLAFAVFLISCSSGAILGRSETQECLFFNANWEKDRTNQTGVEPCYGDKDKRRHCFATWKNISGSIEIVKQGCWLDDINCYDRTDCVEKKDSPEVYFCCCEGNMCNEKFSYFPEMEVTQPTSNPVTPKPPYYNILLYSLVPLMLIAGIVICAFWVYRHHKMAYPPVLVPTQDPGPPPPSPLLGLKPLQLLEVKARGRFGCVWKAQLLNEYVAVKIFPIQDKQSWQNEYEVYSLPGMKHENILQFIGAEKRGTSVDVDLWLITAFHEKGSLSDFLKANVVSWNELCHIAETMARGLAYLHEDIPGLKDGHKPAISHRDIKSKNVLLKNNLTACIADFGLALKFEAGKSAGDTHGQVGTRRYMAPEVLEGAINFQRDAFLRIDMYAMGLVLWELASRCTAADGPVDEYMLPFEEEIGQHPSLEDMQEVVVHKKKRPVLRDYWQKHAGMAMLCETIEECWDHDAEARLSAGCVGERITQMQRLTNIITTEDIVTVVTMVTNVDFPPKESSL

As to `C=CC(=O)Nc1cccc(C(=O)Nc2ccc(Nc3cc(-c4[nH]c(SC)nc4C)ccn3)cc2)c1`, the % of control in test [1] (at 1 µM) was determined as 91%; in test [1] (at 5 µM) it was 83%; in [2] (at 1 µM), 95%; in [2] (at 5 µM), 81%; in [3] (at 1 µM), 176%; in [3] (at 5 µM), 156%. On to `Cc1cc([C@@H](C)Nc2ccccc2C(=O)O)c2nc(N3CCOCC3)cc(=O)n2c1` [AZD-6482], for which, in test [4], the % of control worked out at 94%. On to `Cc1cc(F)c(C(=O)Nc2cccc(-c3nncn3C(C)C)n2)cc1-n1cnc(C2CC2)c1`, for which the % of control in test [5] was found to be 88%. In [6], `O=C(NOC[C@H](O)CO)c1ccc(F)c(F)c1Nc1ccc(I)cc1F` registered a % of control of 51%. Turning to `CNC(=O)Nc1ccc(-c2nc(N3CC4CCC(C3)O4)c3cnn(C4CCC5(CC4)OCCO5)c3n2)cc1`, in test [7], the % of inhibition was -1%. Turning to `COc1cc(N(C)c2ccnc3ccc(C(F)(F)F)cc23)cc(OC)c1OC`, the % binding in test [8] came out at 64%.

Regarding `N#Cc1cccc(-c2c[nH]c3ncnc(N4CCOCC4)c23)c1`, in [9], the % of control stood at 18%. Consider `C=CC(=O)Nc1ccc(C(=O)Nc2[nH]nc3c2CN(C(=O)N[C@H](CN(C)C)c2ccccc2)C3(C)C)cc1`, for which, in [10], the % of engagement was -6.9%.
